# Data published in US8530235B2, “Medium that supports culture of an oocyte and modulation of granulosa cell apoptosis” (Adelaide Research & Innovation Pty Ltd., priority 2005, dated 2013).
# What was measured:
# [1] = test system: cumulus cells; experiment: Staurosporine-induced cumulus cell apoptosis in OOX (TUNEL); type: cell-based, Bovine; conditions: for incidence of CC apoptosis: OOX alone, without 41%; for CC apoptosis of treated OOX exposed to staurosporine: 10% BMP-15 or 10 ng/ml BMP-6
# Description: CC apoptoic DNA was detected using TUNEl (Roche Diagnostic, Penzberg, Germany) according to the manufacturer's instructions. […] Complexes were then permeabilized in 0.11/u Triton X-100 in 0.1% sodium citrate for 1 hour at room temperature and washed 3 times in PBS/BSA. The complexes were then incubated in fluorescein-conjugated dUTP and terminal deoxynucleotide transferase (TUNEl reagents, Roche) for 1 hour at 37° C. in the dark. Positive controls were incubated in DNAse 1 (0.005 U/µl), which cleaves all DNA, for 20 minutes at room temperature and washed twice in PBS/BSA before TUNEl. Negative controls were incubated in fluorescein-dUTP in the absence of TdT. After TUNEl, complexes were washed twice in PBS/BSA and counterstained with propidium iodide 0.5 μg/ml (PI) plus RNase A (0.1 mg/ml) for 1 hour at room temperature in the dark to label all nuclei. Complexes were then washed twice in PBS/BSA and mounted with slight coverslip compression in VectaShield anti-bleaching solution (Vector labs, Burlingame, Calif.), and stored in the dark at 4° C. for confocal analysis. […] These optical section images were acquired and saved as independent colour channels (green, apoptotic cumulus fluorescence and red, nuclear cumulus fluorescence). The captured images were then processed in Scanalytics IPlab software Version 3.6. (Scanalytics, Fairfax, Va.). Quantification of CC number (for each colour channel) was independently measured using a macro script utilizing an auto segmentation filter for each optical section percentile (3 optical “z”-plane sections for each complex). A percentage of apoptotic nuclei were generated for each slice and the three percentile values were then averaged to achieve a representation of the total apoptotic nuclei percentage for the whole complex. These processes were repeated separately on each individual complex. A preliminary experiment was conducted to determine the apoptotic effect of staurosporine on bovine CC, which induced apoptosis in a dose-dependent manner (range; 0.1-100 μM, data not shown). The aim of this experiment was to determine whether OSF could prevent CC from undergoing apoptosis induced by staurosporine. OOX alone or co-cultured with 35 DO, 10 ng/ml BMP-6 or 10% (v/v) BMP-15, and were then exposed to either 0.1 μM or 1.0 μM staurospourine for the last 6 hours of the 24 hour incubation period. Three replicates of this experiment were carried out using 10 OOX per treatment group per replicate experiment.
# [2] = test system: cumulus-oocyte complexes; experiment: Study IV: oocyte developmental competence after IVM, IVF and embryo culture; type: cell-based, Bovine
# Description: Unless otherwise specified, all chemicals and reagents were purchased from Sigma (St Louis, Mo.). Bovine ovaries were collected from local abattoirs and transported to the laboratory in warm saline (30-35° C.). COCs were aspirated from antral follicles (3 to 5 mm diameter) using an 18-gauge needle and a 10-ml syringe containing ˜2 ml aspiration medium (Hepes-buffered. Tissue Cultured Medium-199; TCM-199. ICN Biochemicals, Irvine, Calif., USA) supplemented with 50 μg/ml kanamycin, 0.5 mM sodium pyruvate, 50 μg/ml heparin and 4 mg/ml fatty acid-free bovine serum albumin (FAF-BSA; ICPbio Ltd, Aukland, NZ). Intact COCs with compact cumulus vestments>˜5 cell layers and evenly pigmented cytoplasm were selected under a dissecting microscope and washed twice in Hepes-buffered TCM-199 and once in Hepes-buffered TCM-199 supplemented with 10% fetal calf serim (FCS) (Invitrogen, Carlsbad, Calif.). The basic medium for oocyte maturation was Bovine VitroMat (Cook Australia, Eight Mile Plains, Qld, Australia), a medium based on the ionic composition of bovine follicular fluid. […] Complexes were cultured in pre-equilibrated 300 ? l drops overlaid with mineral oil and incubated at 39° C. with 5% CO2 in humidified air for 24 hour. […]
# Recombinant mouse GDF9 and recombinant ovine BMP15 were produced and partially purified in-house as previously described using transfected 293 human embryonic kidney cell lines (293H) originally donated by O. Ritvos (University of Helsinki). Control conditioned medium (hereafter designated ‘293H’) was produced from untransfected 293H cells and subjected to the same chromatography procedures as GDF9 and BMP15 conditioned media.
# Consequently, SB-431542 potently antagonizes the ALK 4/5 ligands; TGF-β1, the activins and GDF9, without affecting BMP signalling (Inman et al., 2002; Gilchrist et al., 2006). […] Follistatin-288 was generously donated by S. Shimasaki (University of California San Diego, USA) and we have previously shown that this binding protein antagonizes the bioactivities of native OSFs and recombinant BMP15 in CCs.
# In vitro production of embryos was undertaken using defined, serum-free media (Bovine Vitro series of media, Cook Australia). Frozen semen from a single bull of proven fertility was used in all experiments. Briefly, thawed semen was layered over a discontinuous (45%: 90%) Percoll gradient (Amersham Bioscience) and centrifuged (RT) for 20-25 mins at 700 g. The supernatant was removed and the sperm pellet was washed with 500 μl Bovine VitroWash (Cook Australia) and centrifuged for a further 5 minutes at 200 g. Spermatozoa were resuspended with IVF medium (Bovine VitroFert, Cook Australia), then added to the fertilization media drops (Bovine VitroFert, supplemented with 0.01 mM heparin, 0.2 mM penicillamine and 0.1 mM hypotaurine) at a final concentration of 1×106 spermatozoa/ml. COCs were inseminated at a density of 10 μl of IVF medium per COC for 24 h, at 39° C. in 6% CO2 in humidified air.
# CCs were removed by gentle pipetting 23-24 h post insemination and five presumptive zygotes were transferred into 20 μl drops of pre-equilibrated Cook Bovine VitroCleave medium (Cook Australia) and cultured under mineral oil at 38.5° C. in 7% O2, 6% CO2, balance N2, for five days (day 1 to day 5).
# On Day 5, embryos were transferred in groups of 5-6 to 20 μl drops of pre-equilibrated Bovine VitroBlast (Cook Australia) at 38.5° C. overlaid with mineral oil and cultured to Day 8. Embryos were assessed for quality at Day 8 according to the definitions presented in the Manual of the International Embryo Transfer Society (Stringfellow, 1998) and were performed independently and blinded by an experienced bovine embryologist.
# Cell counts were performed using a modified version of the technique described by (Fouladi-Nashta et al., 2005). […]
# [3] = test system: cumulus expansion of oocytectomised (OOX) complexes; experiment: FSH-induced cumulus expansion score of OOX complexes; type: cell-based, mice
# Description: Members of the TGF-β superfamily are prime candidates for the mouse cumulus expansion-enabling factor (CEEF). This study was conducted to examine TGF-β superfamily processes regulating cumulus expansion. COCs were collected from eGG-primed mice and the oocyte microsurgically removed to generate oocytectomised (OOX) complexes. […] The type-I receptors for GDF9 and […] are ALK5 and ALK4, respectively. We tested the ability of an ALK4/5/7 kinase inhibitor to neutralize cumulus expansion.
# [4] = test system: cumulus cells; experiment: Cumulus cell apoptosis in oocytectomized complexes (OOX) and COC, TUNEL with confocal microscopy; type: cell-based, Bovine
# Description: Bovine ovaries were collected from local abattoir and transported to the laboratory in warm saline (30-35° C.). Cumulus-oocyte complexes (COC) were aspirated from antral follicles (2- to 8-mm diameter) using an 18-gauge needle and a 10-ml syringe containing ˜2 ml aspiration media (Hepes-buffered Tissue Cultured Medium-199: TCM-199, ICN Biochemicals, Irvine, Calif., USA) supplemented with 50 μg/ml kanamycin (Sigma-Aldrish, St. louis, Mo.), 4 mg/ml fatty acid-free bovine serum albumin (FAF-BSA) (ICPbio ltd, Auckland, NZ). Intact COC with compact cumulus vestment greater than five cell layers and evenly pigmented cytoplasm were selected under a dissecting microscope and washed twice in Hepes-buffered TCM-199 and once in corresponding culturing media.
# The cytoplasm of each oocyte was microsurgically removed from the COC (oocytectomy) using a micromanipulator as described in Buccione et al (Buccione et al. (1990) Dev Biol 138, 16-25.). The resulting oocytectomized complex (OOX) consists of a hollow zona pellucida surrounded by several layers of intact CC.
# Denuded oocytes (DO) were generated by removing CC from COC by vortexing for approximately 4 minutes in 2 ml H-TCM-199/BSA. Any remaining CC were removed by repeated passage of the oocytes through a fine-bore fire-polished glass pipette in H-TCM-199/BSA.
# CC apoptoic DNA was detected using TUNEl (Roche Diagnostic, Penzberg, Germany) according to the manufacturer's instructions. Briefly, following culture COC and OOX complexes were washed twice in PBS (pH 7.4) containing 1% BSA, fixed in 4% paraformaldehyde in PBS (pH 7.4) overnight at 4° C. and washed twice with PBS/BSA before placing on Cell-Tak-coated coverslips (Beckton Dickinson Biosciences, Franklin lakes, N.J.). Complexes were then permeabilized in 0.11/u Triton X-100 in 0.1% sodium citrate for 1 hour at room temperature and washed 3 times in PBS/BSA. The complexes were then incubated in fluorescein-conjugated dUTP and terminal deoxynucleotide transferase (TUNEl reagents, Roche) for 1 hour at 37° C. in the dark. Positive controls were incubated in DNAse 1 (0.005 U/µl), which cleaves all DNA, for 20 minutes at room temperature and washed twice in PBS/BSA before TUNEl. Negative controls were incubated in fluorescein-dUTP in the absence of TdT. After TUNEl, complexes were washed twice in PBS/BSA and counterstained with propidium iodide 0.5 μg/ml (PI) plus RNase A (0.1 mg/ml) for 1 hour at room temperature in the dark to label all nuclei. Complexes were then washed twice in PBS/BSA and mounted with slight coverslip compression in VectaShield anti-bleaching solution (Vector labs, Burlingame, Calif.), and stored in the dark at 4° C. for confocal analysis.
# Apoptosis in COC and OOX was visualised and quantified using confocal microscopy. Dual fluorescence emission from CC was detected using a Nikon C1 Confocal Scanning Head and a Nikon TE2000E microscope (Nikon, Tokyo, Japan). Simultaneous emission capture of the apoptotic signal (fluorescein, lacer excitation 488 nm, emission 510-530 nm) and the nuclear signal (propidium iodide, excitation lacer 532, emission 590-640 nm) was performed.
# In order to generate an accurate representation of the overall apoptotic incidence for all complexes, the depth of each complex was measured through a Z series to divide the construct into three percentiles (optical Z plane sections) at 25%, 50% and 75%. These optical section images were acquired and saved as independent colour channels (green, apoptotic cumulus fluorescence and red, nuclear cumulus fluorescence). The captured images were then processed in Scanalytics IPlab software Version 3.6. (Scanalytics, Fairfax, Va.). Quantification of CC number (for each colour channel) was independently measured using a macro script utilizing an auto segmentation filter for each optical section percentile (3 optical “z”-plane sections for each complex).
molecule,measurement,setting,value
"CN[C@@H]1C[C@H]2O[C@@](C)([C@@H]1OC)n1c3ccccc3c3c4c(c5c6ccccc6n2c5c31)C(=O)NC4 [staurosporine, reference compound]",incidence of CC apoptosis,[1]; 0.1 μM staurosporine for the last 6 h of 24 h,51%
same,incidence of CC apoptosis,[1]; 1.0 μM staurosporine for the last 6 h of 24 h,74%
follistatin [reference compound],blastocyst development of control COCs treated with antagonist,"[2]; 4 μM SB-431542 or 10 μg/ml follistatin-288, compared to untreated COCs",significantly (P<0.05) decreased
same,cleavage rate of oocytes,"[2]; 10 μg/ml follistatin-288 during IVM, regardless of BMP15 treatment, control 76.2±1.3, p=0.007, in %",71.8±1.3
same,increase of blastocyst yields by GDF9 or BMP15 on addition of the respective antagonist,"[2]; SB-431542 against GDF9, follistatin against BMP15",ablated
same,cumulus expansion score with follistatin,"[3]; OOX complexes co-cultured with oocytes, no significant effect (p>0.05)",2.7±0.2
same,cumulus expansion score with follistatin,[3]; response of OOX complexes to activin,0
same,apoptosis of BMP-15-treated OOXs with antagonist,"[4]; OOX + 10% v/v BMP-15, follistatin 0-100 μg/ml",dose-dependent increase in apoptosis
same,antagonism of the anti-apoptotic effects of oocytes on cumulus cells,"[4]; OOX + 25 DO, 50 μg/ml follistatin or 20 μg/ml BMP-6 NAb alone",~50%
"activin A: TGF-β superfamily member, ligand of ALK4 (protein, UniProt P08476 311-426, looked up, Inhibin beta A chain, TGF-β superfamily member, ligand of ALK4) Inhibin beta A chain: GLECDGKVNICCKKQFFVSFKDIGWNDWIIAPSGYHANYCEGECPSHIAGTSGSSLSFHSTVINHYRMRGHSPFANLKSCCVPTKLRPMSMLYYDDGQNIIKKDIQNMIVEECGCS",cumulus expansion score,"[3]; score 0 (no expansion) to +4 (maximum expansion), mean ±SEM, OOX complexes with FSH",2.6±0.1
"BMP-6: Recombinant human BMP-6 obtained from R&D systems (protein, UniProt P22004 375-513, looked up) Bone morphogenetic protein 6: SASSRRRQQSRNRSTQSQDVARVSSASDYNSSELKTACRKHELYVSFQDLGWQDWIIAPKGYAANYCDGECSFPLNAHMNATNHAIVQTLVHLMNPEYVPKPCCAPTKLNAISVLYFDDNSNVILKKYRNMVVRACGCH",effect on incidence of cumulus cell apoptosis,"[4]; OOX cultured with increasing doses (GDF-9 0-175 ng/ml, BMP-6 0-100 ng/ml, BMP-15 0-20% v/v, 5-50 DO), presence or absence of FSH",significantly decreased
same,"effect on CC apoptosis, test for additive effect","[4]; OOX treated with DO, 10 ng/ml BMP-6 and/or 10% v/v BMP-15",significantly (P<0.001) decreased
same,CC apoptosis of treated OOX exposed to staurosporine,[1]; 0.1 μM staurosporine,21%
same,CC apoptosis of treated OOX exposed to staurosporine,[1]; 1 μM staurosporine,31%
"gremlin: BMP antagonist (BMP-2, BMP-4, BMP-7) obtained from R&D systems (protein, UniProt O60565 25-184, looked up) Gremlin-1: KKKGSQGAIPPPDKAQHNDSEQTQSPQQPGSRNRGRGQGRGTAMPGEEVLESSQEALHVTERKYLKRDWCKTQPLKQTIHEEGCNSRTIINRFCYGQCNSFYIPRHIRKEEGSFQSCSFCKPKKFTTMMVTLNCPELQPPTKKKRVTRVKQCRCISIDLD",antagonism of the inhibitory effect of BMP-7 on CC apoptosis,"[4]; OOX + 100 ng/ml BMP-7, 2 μg/ml gremlin, not when BMP-15 was present",significantly (P<0.001) reversed
same,apoptosis of BMP-15-treated OOXs with antagonist,"[4]; OOX + 10% BMP-15, increasing dose of gremlin (0-40 μg/ml)",not significantly increased
